Results: article PMC8080595, “Discovery of a novel RORγ antagonist with skin-restricted exposure for topical treatment of mild to moderate psoriasis” (Scientific Reports, 2021)

Legend:
[1] = tested on: IL-23-induced psoriasis-like skin inflammation mice; assay: IL-23-induced psoriasis-like skin inflammation mouse model, topical treatment; assay type: in vivo; details: for IL17 / IL-6 / TNFα / Thickness of the back skin: day 8, Mean ± SEM, n = 10
Method: Psoriasis was induced by intradermal injection of IL-23 on mouse skin as described by Rizzo et al.[19]. Three days later after shaving (day 1), two injections of IL-23 (0.5 µg protein per mouse) were performed on both sides of the dorsal skin (except naïve group) for 8 days. SHR168442 in Vaseline was topically applied daily starting three day before IL-23 injections, and then twice a day starting on the day of IL-23 injections. The mice were weighed daily, and the skin were scored daily on a scale from 0 to 4. At day 8, the skin thickness was measured in live mice with a caliper and the animal was sacrificed 3 h after the first topical application. The in-life portion of the study was carried out at Nanjing University (Nanjing, China). The experimental protocol used in this study was approved by IACUC in Nanjing, China. The experiments were conducted in accordance with the Guiding Principles for the Care and Use of Laboratory Animals and complied with the ARRIVE guidelines.
IL-17A, IL-6 and TNFα were determined in plasma collected at day 8 using a cytometric bead array (BD Biosciences) following the vendor's instruction.

[2] = tested on: IMQ-induced psoriasis-like skin inflammation mice; assay: IMQ-induced psoriasis-like skin inflammation model, topical treatment; assay type: in vivo, BALB/c mice
Method: At the end of the study, the mouse plasma and diseased back skin were collected 3 h after topical application for PK analysis.
Psoriasis was induced by topical application of IMQ cream on the shaved dorsal skin as described by Leslie van der Fits et al.[18]. SHR168442 in Vaseline (n = 10 per group) was treated once a day (QD) from 3 days prior to day 1, and then twice a day (BID) from day 1 to day 6. The animal was sacrificed at 3 h after the first dose in the morning of day 7. Erythema, scaling, and thickness of the back skin were scored independently daily on a scale from 0 to 4. Blood and back skin tissues from the study were collected at 3 h (n = 4) post dosing in the morning of […]. The plasma and skin tissues after tape stripping were analyzed for Compound 1 as described above. The in-life portion of the study was carried out at Washington Biotechnology (Baltimore, MD). The housing conditions and in-life procedures were approved by IACUC. The experiments were conducted in accordance with the Guiding Principles for the Care and Use of Laboratory Animals and complied with the ARRIVE guidelines.

[3] = biological target: T1, ADORA2A (Homo sapiens, UniProt P29274); assay: SAFETYscan47 Calcium Flux; assay type: cell-based; details: 3 µM
T1 construct: purchased DiscoverX (Eurofins) SAFETYscan47
Method: To further profile any off-target activity, we counter-screened SHR168442 in SAFETYscan47 panel, compiled by DiscoverX based on the recommendation by major pharmaceutical companies. SHR168442 was screened at 3 µM in duplicates.

[4] = biological target: T2, RORγ LBD (Homo sapiens, UniProt P51449); assay: LanthaScreen TR-FRET human RORγ coactivator assay; assay type: biochemical; details: antagonist mode, read-out: Binding of RORγ LBD, IC50
T2 construct: The assay was performed with GST-tag RORγ LBD (25 ng/reaction, Creative Biomart); purchased Creative Biomart
T2 sequence (P51449 269-508 limits assumed): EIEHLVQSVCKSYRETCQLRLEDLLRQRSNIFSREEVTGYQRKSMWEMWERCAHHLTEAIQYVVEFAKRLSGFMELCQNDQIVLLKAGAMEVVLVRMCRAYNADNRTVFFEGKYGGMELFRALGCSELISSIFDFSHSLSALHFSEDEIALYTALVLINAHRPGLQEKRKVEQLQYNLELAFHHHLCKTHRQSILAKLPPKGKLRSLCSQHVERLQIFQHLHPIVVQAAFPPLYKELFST
From the text: In LanthaScreen TR-FRET RORγ coactivator assay, the RORγ LBD was constitutively active and the coactivator peptide (fluorescein-D22) was recruited in the absence of ligand, or compound (Fig. 2a). The binding of an antagonist to RORγ LBD causes a conformational change of the receptor, leading to a decrease in the affinity of the receptor for the coactivator peptide. The separation of the fluorescently labeled coactivator peptide from RORγ LBD from the receptor with the terbium-labeled antibody causes a decrease in the TR-FRET signal compared to those without compound. The assay was validated by detecting the ligand-independent recruitment of coactivator peptide in the presence or absence of RORγ LBD (2.5- to 3-fold assay window). Effects of the key compounds of the novel chemotype in Fig. 1, were tested in LanthaScreen TR-FRET RORγ coactivator assay.
The assay was performed with GST-tag RORγ LBD (25 ng/reaction, Creative Biomart), 0.6 μM Fluorescein-D22 coactivator peptide and 8 nM Tb anti-GST antibody (Invitrogen) at room temperature for 60 minutes. The fluorescent signals were measured with 520 nm emission and 495 nm excitation on Tecan Infinite. The data were calculated using DMSO control as 0% inhibition and non-protein control as 100% inhibition. IC50 values were calculated using non-linear regression analysis of GraphPad Prism in all assays.

[5] = biological target: T3, RORγ (Homo sapiens, UniProt P51449); assay: RORγ luciferase reporter assay; assay type: cell-based; details: nuclear reporter assay, n = 3; read-out: inhibition of the RORγ transcriptional activity, average IC50
T3 sequence (P51449 260-518 limits assumed): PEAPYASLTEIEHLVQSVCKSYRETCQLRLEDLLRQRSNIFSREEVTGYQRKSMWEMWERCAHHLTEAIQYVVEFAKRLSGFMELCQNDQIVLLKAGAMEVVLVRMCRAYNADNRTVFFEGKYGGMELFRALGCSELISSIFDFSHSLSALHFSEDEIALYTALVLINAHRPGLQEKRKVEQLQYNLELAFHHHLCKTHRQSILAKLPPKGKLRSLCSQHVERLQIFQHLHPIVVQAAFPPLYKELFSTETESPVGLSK
Method: Ursolic acid was used as a positive control.
Cell-based luciferase reporter assays for RORα and RORγ (Indigo Biosciences) were performed according to the manufacturer’s protocol.

T1 sequence (P29274 whole entry): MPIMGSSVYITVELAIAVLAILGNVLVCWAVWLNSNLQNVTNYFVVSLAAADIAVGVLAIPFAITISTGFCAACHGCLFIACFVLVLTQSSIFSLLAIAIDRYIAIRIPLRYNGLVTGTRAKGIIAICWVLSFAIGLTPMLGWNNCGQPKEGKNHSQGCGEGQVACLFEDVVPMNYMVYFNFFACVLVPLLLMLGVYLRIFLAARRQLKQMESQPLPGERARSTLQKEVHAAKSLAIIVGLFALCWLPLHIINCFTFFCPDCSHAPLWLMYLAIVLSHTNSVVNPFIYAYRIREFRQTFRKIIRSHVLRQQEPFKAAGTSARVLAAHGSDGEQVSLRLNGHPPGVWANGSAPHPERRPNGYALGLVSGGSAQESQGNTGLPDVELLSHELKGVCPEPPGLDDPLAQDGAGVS

CCS(=O)(=O)c1ccc([C@H](CCO)c2nc3c(Cl)c(N4CCC(F)(F)CC4)c(Cl)cc3[nH]2)cc1 [SHR168442, (S)-3-(4,6-dichloro-5-(4,4-difluoropiperidin-1-yl)-1H-benzo[d]imidazol-2-yl)-3-(4-(ethylsulfonyl)phenyl)propan-1-ol]
IL17 ([1]; 0.5% in Vaseline topical): 190 ± 28 fg/mL | IL-6 ([1]; 0.5% in Vaseline topical): 124 ± 32 fg/mL | TNFα ([1]; 0.5% in Vaseline topical): 5495 ± 837 fg/mL | Thickness of the back skin ([1]; 0.5% in Vaseline topical): 0.452 ± 0.020 mm | clinical scores ([1]; 0.5%, 2%, 8% in Vaseline topical, scale 0 to 4): reduce clinical scores in a dose-dependent manner | IL17 ([1]; 2% in Vaseline topical): 172 ± 38 fg/mL | IL-6 ([1]; 2% in Vaseline topical): 112 ± 43 fg/mL | TNFα ([1]; 2% in Vaseline topical): 4284 ± 804 fg/mL | Thickness of the back skin ([1]; 2% in Vaseline topical): 0.436 ± 0.019 mm | IL17 ([1]; 8% in Vaseline topical): 185 ± 35 fg/mL | IL-6 ([1]; 8% in Vaseline topical): 123 ± 37 fg/mL | TNFα ([1]; 8% in Vaseline topical): 3380 ± 491 fg/mL | Thickness of the back skin ([1]; 8% in Vaseline topical): 0.330 ± 0.015 mm | reduction of skin thickness ([1]; 8% topical, relative to vehicle and naïve group): 97% | body weight ([1]; all treatment groups): no significant body weight loss | cumulative scores (scaling, erythema, thickness) ([2]; 2%, 4% and 8% in Vaseline topical): clear dose-dependent reduction | scores of erythema ([2]; 4% and 8% topical, day 6, versus vehicle control): significantly reduced | score of scaling ([2]; 8% in Vaseline topical, days 4 to 6, scale 0 to 4): < 1.0 | exposures in diseased skin and plasma ([2]; 3 h after topical application, all treatments): high in skin and low in plasma | body weight ([2]; all treatment groups): no significant body weight loss | % Response Average ([3]; Agonist): 7.3% | % Response Replicate 1 ([3]; Agonist): 0.0% | % Response Replicate 2 ([3]; Agonist): 14.7% | % Response Average ([3]; Antagonist): 15.1% | % Response Replicate 1 ([3]; Antagonist): 5.4% | % Response Replicate 2 ([3]; Antagonist): 24.9% | IC50 [4]: 35 ± 9 nM | IC50 [5]: 15 ± 9 nM
